# In patent EP4603105A1, “PHARMACEUTICAL COMPOSITION CONTAINING CYCLIC COMPOUND HAVING SELECTIVE KRAS INHIBITORY EFFECT AGAINST HRAS AND NRAS” (CHUGAI SEIYAKU KABUSHIKI KAISHA, priority 2022, dated 2024):
# Where two headings read alike, the source gives them in different places. *1 amine or outer side, *2 acyl side, *3 side chain or, on linkers, in order; H or OH if unused. Where a SMILES comes first, the peptide text is derived from it. Bridges are numbered along the chain shown (N, C = ends). [ ]: non-standard residue; d: D form. The star is where a group is joined. hPhe(3-Cl-4-CF3) = N[C@@H](CCc1ccc(C(F)(F)F)c(Cl)c1)C(=O)O; NPrPhe(4-CF3) = CCCN[C@@H](Cc1ccc(C(F)(F)F)cc1)C(=O)O; X40 = Cc1ccc(C[C@@H](C(=O)[*:2])N(CC(C)C)[*:1])cc1; X49 = Cc1ccc(C[C@@H](C(=O)[*:2])N(CC2CC2)[*:1])cc1; X1 = CCCCN([C@@H](Cc1ccc(C)cc1)C(=O)[*:2])[*:1]; NPrPhe(4-Me) = CCCN[C@@H](Cc1ccc(C)cc1)C(=O)O; X21 = CCCN([C@H](C(=O)[*:2])C1CCCC1)[*:1]; NMeGly(cPent) = CN[C@H](C(=O)O)C1CCCC1; NMeD = CN[C@@H](CC(=O)O)C(=O)O; NMeL = CN[C@@H](CC(C)C)C(=O)O; Morpholide = C1CN(*)CCO1; NMeA = CN[C@@H](C)C(=O)O; Ac5c = NC1(C(=O)O)CCCC1; Aze = O=C(O)[C@@H]1CCN1; NEtG = CCNCC(=O)O; Sar = CNCC(=O)O
# Columns and labels:
# [1] = system: human lung cancer strain NCI-H441; assay type: cell-based
# Summary of the method: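 Readout: […] after the ATP-based reagent. Compound: serial dilutions in dimethyl sulfoxide.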
# [2] = target: HRAS wild-type protein (Homo sapiens, UniProt P01112); assay: Binding to HRAS by surface plasmon resonance (SPR), KD and KD ratio to KRAS; conditions: ratio of KD for HRAS wild-type protein to KD for KRAS
# Summary of the method: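 GDP-bound biotin-Avi RAS captured at ~100–300 RU, 30°C, pH 7.4 HBS containing 10 µM GDP, 10 mM MgCl2, 1 mM DTT, 0.01% Tween 20 and 4% DMSO. KD by 1:1 fitting.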
# [3] = target: GDP-bound NRAS wild-type protein (Homo sapiens, UniProt P01111); assay: Binding to NRAS by surface plasmon resonance (SPR), KD and KD ratio to KRAS; conditions: ratio of KD for GDP-bound NRAS wild-type protein to KD for KRAS
# Procedure: Surface plasmon resonance was used to analyze the binding affinity of compounds for KRAS, NRAS, and HRAS. The apparatus used was Biacore 8K, 8K+, or T200 (GE Healthcare), and the running buffer used was HBS (10 mM HEPES-NaOH, 150 mM NaCl, pH 7.4) containing 1 mM DTT, 10 mM MgCl2, 0.01% Tween 20, 10 µM GDP, and 4% DMSO.
# Biotinylated Avi-tag fusion KRAS, NRAS, and HRAS proteins were expressed in E. coli BL21 (DE3) strains, and after cells were homogenized, they were purified using Streptavidin Mutein Matrix and Superdex 75. After purification, GDP-loaded KRAS, NRAS, and HRAS proteins were immobilized on the surface of Sensor Chip CAP (Cytiva) coated with Biotin CAPture Reagent in an immobilization amount of about 100 to 300 RU. Binding of each compound was evaluated by the Single Cycle Kinetics method, and a running buffer or a compound solution was added to the RAS protein non-immobilized surface and the immobilized surface to obtain a binding response. The flow rate was set to 100 µL/min, and in the compound-adding cycle, compound solutions having different concentrations were intermittently added for 75 seconds each, starting from a low concentration. […] In the blank cycle, a running buffer was intermittently added and not the compound solution. The Biotin CAPture Reagent and RAS proteins were immobilized for each cycle, and at the end of each cycle, the sensor chip was regenerated by the regeneration solution appended to the Biotin CAPture Kit (Cytiva). Measurement was carried out at 30°C.
# The resulting sensorgram was subjected to curve fitting based on a 1:1 binding model on Biacore Insight Evaluation Software or T200 Evaluation Software, and thereby the dissociation constant KD of each compound with respect to KRAS, NRAS, and HRAS was determined. […] Blank indicates a compound from which the KD value with respect to NRAS or HRAS was not obtained.
# Chain of HRAS wild-type protein (P01112 whole entry): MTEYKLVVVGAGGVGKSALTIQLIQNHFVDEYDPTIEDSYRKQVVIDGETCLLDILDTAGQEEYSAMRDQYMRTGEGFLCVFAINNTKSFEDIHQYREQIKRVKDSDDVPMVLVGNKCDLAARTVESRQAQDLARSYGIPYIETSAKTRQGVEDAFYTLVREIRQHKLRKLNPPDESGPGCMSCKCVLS
# Chain of GDP-bound NRAS wild-type protein (P01111 whole entry): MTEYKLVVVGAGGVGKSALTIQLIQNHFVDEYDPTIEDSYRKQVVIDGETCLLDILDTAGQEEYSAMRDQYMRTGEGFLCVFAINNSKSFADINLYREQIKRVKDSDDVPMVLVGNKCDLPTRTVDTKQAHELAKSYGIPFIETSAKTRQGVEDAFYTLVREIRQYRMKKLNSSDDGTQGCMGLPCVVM
smiles,measurement,setting,value
CCCN1C(=O)[C@@H]2CCN2C(=O)[C@H](C)N(C)C(=O)[C@H]([C@@H](C)CC)NC(=O)[C@H](CC(C)C)N(C)C(=O)C[C@@H](C(=O)N2CCOCC2)N(C)C(=O)[C@H](C2CCCC2)N(C)C(=O)C2(CCCC2)NC(=O)[C@@H]2CCCN2C(=O)[C@H](CCc2ccc(C(F)(F)F)c(Cl)c2)NC(=O)CN(C)C(=O)[C@@H]1C1CCCC1 [PP0054] ([NMeL]I[NMeA][Aze][X21][Sar][hPhe(3-Cl-4-CF3)]P[Ac5c][NMeGly(cPent)][NMeD]-Morpholide; lactam N-11),IC50,"[1]; NCI-H441 cells, 4 days, CellTiter-Glo, read-out: NCl-H441 IC50",82 nM
same,HRAS /KRAS,[2],C (A compound having a KD ratio of 0.1 or more and less than 3 is denoted as C)
same,NRAS /KRAS,[3],C (A compound having a KD ratio of 0.1 or more and less than 3 is denoted as C)
CC[C@H](C)[C@@H]1NC(=O)[C@H](CC(C)C)N(C)C(=O)C[C@@H](C(=O)N2CCOCC2)N(C)C(=O)[C@H](C2CCCC2)N(C)C(=O)C2(CCCC2)NC(=O)[C@@H]2CCCN2C(=O)[C@H](CCc2ccc(C(F)(F)F)c(Cl)c2)NC(=O)CN(C)C(=O)[C@H](Cc2ccc(C)cc2)N(CC(C)C)C(=O)[C@@H]2CCN2C(=O)[C@H](C)N(C)C1=O [PP0056] ([NMeL]I[NMeA][Aze][X40][Sar][hPhe(3-Cl-4-CF3)]P[Ac5c][NMeGly(cPent)][NMeD]-Morpholide; lactam N-11),IC50,[1],49.6 nM
same,HRAS /KRAS,[2],B (a compound having 3 or more and less than 10 is denoted as B)
same,NRAS /KRAS,[3],C (A compound having a KD ratio of 0.1 or more and less than 3 is denoted as C)
CC[C@H](C)[C@@H]1NC(=O)[C@H](CC(C)C)N(C)C(=O)C[C@@H](C(=O)N2CCOCC2)N(C)C(=O)[C@H](C2CCCC2)N(C)C(=O)C2(CCCC2)NC(=O)[C@@H]2CCCN2C(=O)[C@H](CCc2ccc(C(F)(F)F)c(Cl)c2)NC(=O)CN(C)C(=O)[C@H](Cc2ccc(C)cc2)N(CC2CC2)C(=O)[C@@H]2CCN2C(=O)[C@H](C)N(C)C1=O [PP0057] ([NMeL]I[NMeA][Aze][X49][Sar][hPhe(3-Cl-4-CF3)]P[Ac5c][NMeGly(cPent)][NMeD]-Morpholide; lactam N-11),IC50,[1],6.2 nM
same,HRAS /KRAS,[2],B (a compound having 3 or more and less than 10 is denoted as B)
same,NRAS /KRAS,[3],C (A compound having a KD ratio of 0.1 or more and less than 3 is denoted as C)
CCCN1C(=O)[C@@H]2CCN2C(=O)[C@H](C)N(C)C(=O)[C@H]([C@@H](C)CC)NC(=O)[C@H](CC(C)C)N(C)C(=O)C[C@@H](C(=O)N2CCOCC2)N(C)C(=O)[C@H](C2CCCC2)N(C)C(=O)C2(CCCC2)NC(=O)[C@@H]2CCCN2C(=O)[C@H](CCc2ccc(C(F)(F)F)c(Cl)c2)NC(=O)CN(CC)C(=O)[C@@H]1Cc1ccc(C)cc1 [PP0058] ([NMeL]I[NMeA][Aze][NPrPhe(4-Me)][NEtG][hPhe(3-Cl-4-CF3)]P[Ac5c][NMeGly(cPent)][NMeD]-Morpholide; lactam N-11),IC50,[1],25.8 nM
same,HRAS /KRAS,[2],C (A compound having a KD ratio of 0.1 or more and less than 3 is denoted as C)
same,NRAS /KRAS,[3],C (A compound having a KD ratio of 0.1 or more and less than 3 is denoted as C)
CCCN1C(=O)CN(C)C(=O)CN(C)C(=O)[C@H]([C@@H](C)CC)NC(=O)[C@H](CC(C)C)N(C)C(=O)C[C@@H](C(=O)N2CCOCC2)N(C)C(=O)[C@H](C2CCCC2)N(C)C(=O)C2(CCCC2)NC(=O)[C@@H]2CCCN2C(=O)[C@H](CCc2ccc(C(F)(F)F)c(Cl)c2)NC(=O)CN(C)C(=O)[C@@H]1Cc1ccc(C)cc1 [PP0059] ([NMeL]I[Sar][Sar][NPrPhe(4-Me)][Sar][hPhe(3-Cl-4-CF3)]P[Ac5c][NMeGly(cPent)][NMeD]-Morpholide; lactam N-11),IC50,[1],6.1 nM
same,HRAS /KRAS,[2],C (A compound having a KD ratio of 0.1 or more and less than 3 is denoted as C)
same,NRAS /KRAS,[3],B (a compound having 3 or more and less than 10 is denoted as B)
CCCN1C(=O)CN(C)C(=O)CN(C)C(=O)[C@H]([C@@H](C)CC)NC(=O)[C@H](CC(C)C)N(C)C(=O)C[C@@H](C(=O)N2CCOCC2)N(C)C(=O)[C@H](C2CCCC2)N(C)C(=O)C2(CCCC2)NC(=O)[C@@H]2CCCN2C(=O)[C@H](CCc2ccc(C(F)(F)F)c(Cl)c2)NC(=O)CN(C)C(=O)[C@@H]1Cc1ccc(C(F)(F)F)cc1 [PP0060] ([NMeL]I[Sar][Sar][NPrPhe(4-CF3)][Sar][hPhe(3-Cl-4-CF3)]P[Ac5c][NMeGly(cPent)][NMeD]-Morpholide; lactam N-11),IC50,[1],1.5 nM
same,HRAS /KRAS,[2],B (a compound having 3 or more and less than 10 is denoted as B)
same,NRAS /KRAS,[3],B (a compound having 3 or more and less than 10 is denoted as B)
CCCN1C(=O)CN(C)C(=O)CN(C)C(=O)[C@H]([C@@H](C)CC)NC(=O)[C@H](CC(C)C)N(C)C(=O)C[C@@H](C(=O)N2CCOCC2)N(C)C(=O)[C@H](C2CCCC2)N(C)C(=O)C2(CCCC2)NC(=O)[C@@H]2CCCN2C(=O)[C@H](CCc2ccc(C(F)(F)F)c(Cl)c2)NC(=O)CN(C)C(=O)[C@@H]1C1CCCC1 [PP0061] ([NMeL]I[Sar][Sar][X21][Sar][hPhe(3-Cl-4-CF3)]P[Ac5c][NMeGly(cPent)][NMeD]-Morpholide; lactam N-11),IC50,[1],84.4 nM
same,HRAS /KRAS,[2],C (A compound having a KD ratio of 0.1 or more and less than 3 is denoted as C)
same,NRAS /KRAS,[3],B (a compound having 3 or more and less than 10 is denoted as B)
CCCCN1C(=O)CN(C)C(=O)CN(C)C(=O)[C@H]([C@@H](C)CC)NC(=O)[C@H](CC(C)C)N(C)C(=O)C[C@@H](C(=O)N2CCOCC2)N(C)C(=O)[C@H](C2CCCC2)N(C)C(=O)C2(CCCC2)NC(=O)[C@@H]2CCCN2C(=O)[C@H](CCc2ccc(C(F)(F)F)c(Cl)c2)NC(=O)CN(C)C(=O)[C@@H]1Cc1ccc(C)cc1 [PP0062] ([NMeL]I[Sar][Sar][X1][Sar][hPhe(3-Cl-4-CF3)]P[Ac5c][NMeGly(cPent)][NMeD]-Morpholide; lactam N-11),IC50,[1],3.8 nM
same,HRAS /KRAS,[2],C (A compound having a KD ratio of 0.1 or more and less than 3 is denoted as C)
same,NRAS /KRAS,[3],C (A compound having a KD ratio of 0.1 or more and less than 3 is denoted as C)
CC[C@H](C)[C@@H]1NC(=O)[C@H](CC(C)C)N(C)C(=O)C[C@@H](C(=O)N2CCOCC2)N(C)C(=O)[C@H](C2CCCC2)N(C)C(=O)C2(CCCC2)NC(=O)[C@@H]2CCCN2C(=O)[C@H](CCc2ccc(C(F)(F)F)c(Cl)c2)NC(=O)CN(C)C(=O)[C@H](Cc2ccc(C)cc2)N(CC(C)C)C(=O)CN(C)C(=O)CN(C)C1=O [PP0063] ([NMeL]I[Sar][Sar][X40][Sar][hPhe(3-Cl-4-CF3)]P[Ac5c][NMeGly(cPent)][NMeD]-Morpholide; lactam N-11),IC50,[1],39.3 nM
same,HRAS /KRAS,[2],C (A compound having a KD ratio of 0.1 or more and less than 3 is denoted as C)
same,NRAS /KRAS,[3],C (A compound having a KD ratio of 0.1 or more and less than 3 is denoted as C)
CC[C@H](C)[C@@H]1NC(=O)[C@H](CC(C)C)N(C)C(=O)C[C@@H](C(=O)N2CCOCC2)N(C)C(=O)[C@H](C2CCCC2)N(C)C(=O)C2(CCCC2)NC(=O)[C@@H]2CCCN2C(=O)[C@H](CCc2ccc(C(F)(F)F)c(Cl)c2)NC(=O)CN(C)C(=O)[C@H](Cc2ccc(C)cc2)N(CC2CC2)C(=O)CN(C)C(=O)CN(C)C1=O [PP0064] ([NMeL]I[Sar][Sar][X49][Sar][hPhe(3-Cl-4-CF3)]P[Ac5c][NMeGly(cPent)][NMeD]-Morpholide; lactam N-11),IC50,[1],9.9 nM
same,HRAS /KRAS,[2],C (A compound having a KD ratio of 0.1 or more and less than 3 is denoted as C)
same,NRAS /KRAS,[3],C (A compound having a KD ratio of 0.1 or more and less than 3 is denoted as C)
CCCN1C(=O)CN(CC)C(=O)CN(C)C(=O)[C@H]([C@@H](C)CC)NC(=O)[C@H](CC(C)C)N(C)C(=O)C[C@@H](C(=O)N2CCOCC2)N(C)C(=O)[C@H](C2CCCC2)N(C)C(=O)C2(CCCC2)NC(=O)[C@@H]2CCCN2C(=O)[C@H](CCc2ccc(C(F)(F)F)c(Cl)c2)NC(=O)CN(C)C(=O)[C@@H]1Cc1ccc(C)cc1 [PP0065] ([NMeL]I[Sar][NEtG][NPrPhe(4-Me)][Sar][hPhe(3-Cl-4-CF3)]P[Ac5c][NMeGly(cPent)][NMeD]-Morpholide; lactam N-11),IC50,[1],4.3 nM
same,HRAS /KRAS,[2],C (A compound having a KD ratio of 0.1 or more and less than 3 is denoted as C)
same,NRAS /KRAS,[3],C (A compound having a KD ratio of 0.1 or more and less than 3 is denoted as C)
